target: T1, C5a receptor (Homo sapiens, UniProt P21730); assay: Calcium Mobilization Assay (C5a-induced Ca2+ mobilization, FLIPR, differentiated U937 cells); assay type: cell-based; set-up: endogenous in cells; host or cells: U937 cells differentiated with dibutyryl cAMP; details: […] recombinant human C5a, 20 min pre-incubation, multiple values = duplicate experiments, read-out: C5a Induced Ca Mobil. Average IC50
T1 sequence (P21730 1-350): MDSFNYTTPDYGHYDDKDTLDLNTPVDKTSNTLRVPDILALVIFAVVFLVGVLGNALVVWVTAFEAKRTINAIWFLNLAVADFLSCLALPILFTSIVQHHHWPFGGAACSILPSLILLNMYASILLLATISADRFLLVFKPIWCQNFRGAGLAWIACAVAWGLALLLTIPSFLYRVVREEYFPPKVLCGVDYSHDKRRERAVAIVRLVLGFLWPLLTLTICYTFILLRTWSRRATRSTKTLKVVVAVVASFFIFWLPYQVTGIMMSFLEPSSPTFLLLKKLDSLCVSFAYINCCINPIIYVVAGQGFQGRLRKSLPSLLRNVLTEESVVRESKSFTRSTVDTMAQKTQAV
Experimental: U937 cells (human monocytic cell line) were cultured in RPMI-1640 medium supplemented with 10% fetal bovine serum, 10 mM HEPES, 0.11 g/L pyruvate, 0.29 g/L L-glutamine, 100 IU/mL penicillin G and […] streptomycin. Dibutyryl cAMP (1 mM) was added to induce differentiation 2 or 3 days prior to loading the cells with 4.4 μM Fluo-3AM (Molecular Probes) for 30 min at 37° C. in RPMI medium containing 20 mM HEPES, 0.1% bovine serum albumin (BSA) and 5 mM probenecid. After washing, cells were dissolved at 2×10^6 cells/ml in HBSS buffer (Invitrogen 14190-094) supplemented with 10 mM HEPES, 2.5 mM probenecid and 0.1% BSA (pH=7.4), and sedimented by 1 min centrifugation (1500 rpm) in black 96-well plates (Costar) (200,000 cells/well). A 100× concentration range of test compounds was prepared in DMSO and further diluted in HBSS buffer. U937 cells were pre-incubated with compound for 20 minutes at room temperature (1% DMSO), before recombinant human C5a (Sigma) was added to the cells (1.5 nM). Changes in intracellular free Ca^2+ concentration were measured using the Fluorescent Imaging Plate Reader (FLIPR, Molecular Devices). Fluorescence was recorded every second from 10 seconds before the addition of C5a until 2 min after the addition. The maximal fluorescence obtained during this time frame was used for further calculations.

SMILES	IC50 [nM]
CCc1cccc(CC)c1-c1cc(OC)c2c(n1)CCCC2N(C)c1cccc2cc(OC)ccc12 (stereo not drawn) [Compound 22]	176
CCc1cccc(CC)c1-c1cc(OC)c2c(n1)CCCC2N(CC)c1cccc2c1CCCC2 (stereo not drawn) [Compound 24]	216
CCc1cccc(CC)c1-c1cc(OCc2ccccc2)c2c(n1)CCCC2N(CC)c1cccc2ccccc12 (stereo not drawn) [Compound 27]	273
CCc1cccc(CC)c1-c1cc(OC)c2c(n1)CCCC2Nc1cc(C(F)(F)F)ccc1C (stereo not drawn) [Compound 28]	287
CCc1cccc(CC)c1-c1cc(OC)c2c(n1)CCCC2Oc1cc(OC)ccc1C (stereo not drawn) [Compound 29]	338
CCN(c1cccc2ccccc12)C1CCCc2nc(-c3ccccc3C)cc(OC)c21 (stereo not drawn) [Compound 30]	354
CCc1cccc(CC)c1-c1cc(OC)c2c(n1)CCCC2Nc1cc(OC)ccc1Cl (stereo not drawn) [Compound 32]	380
CCc1cccc(CC)c1-c1cc(OC)c2c(n1)CCCC2Nc1cc(OC)ccc1OC (stereo not drawn) [Compound 34]	417
CCc1cccc(CC)c1-c1cc(OC)c2c(n1)CCCC2N(C)c1ccc(OC)c2ccccc12 (stereo not drawn) [Compound 36]	531
COc1ccc(C)c(NC2CCCc3nc(-c4c(C)cccc4C)cc(OC)c32)c1 (stereo not drawn) [Compound 37]	543
CCc1cccc(CC)c1-c1cc(OC)c2c(n1)CCCC2N(C)c1cc(OC)ccc1C (stereo not drawn) [Compound 38]	560
CCc1cccc(CC)c1-c1cc(OC)c2c(n1)CCCC2N(C)c1cc(C)ccc1C (stereo not drawn) [Compound 40]	687
CCc1ccccc1NC1CCCc2nc(-c3c(CC)cccc3CC)cc(OC)c21 (stereo not drawn) [Compound 41]	732
CCc1cccc(CC)c1-c1cc(OC)c2c(n1)CCCC2N(C)c1ccccc1C (stereo not drawn) [Compound 42]	792
CCc1cccc(CC)c1-c1cc(OC)c2c(n1)CCC[C@H]2N(C)[C@H]1CCCc2ccccc21 [Compound 43]	817
CCc1cccc(CC)c1-c1cc(OC)c2c(n1)CCCC2N1CCc2cccc(C(=O)OC)c2C1 (stereo not drawn) [Compound 44]	839
CCc1cccc(CC)c1-c1cc(OC)c2c(n1)CCCC2N1CCc2ccc(F)cc2C1 (stereo not drawn) [Compound 45]	878
CCc1cccc(CC)c1-c1cc(OC)c2c(n1)CCCC2N(C)c1cc(OC)ccc1Cl (stereo not drawn) [Compound 47]	949
COc1cc(-c2c(C)cccc2C)nc2c1C(N(C)c1ccc(Cl)c3ccccc13)CCC2 (stereo not drawn) [Compound 48]	1210
COc1cc(-c2c(C)cccc2C)nc2c1C(N(CC#N)c1cccc3ccccc13)CCC2 (stereo not drawn) [Compound 49]	1380
CCc1cccc(CC)c1-c1cc(OC)c2c(n1)CCCC2Nc1cc(F)ccc1C (stereo not drawn) [Compound 50]	1380

target: T1, C5a receptor; assay: [125I]-C5a Radioligand Binding Assay (competition binding, differentiated U937 cells); details: read-out: [125I]-C5a Binding % Inhibition 1 μM, test compound 1 μM; [125I]-C5a 0.05 nM; U937 cells; multiple values = duplicate experiments;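 further: cells preincubated with compound 30 min at room temperature, then 60 min at 4 °C with radioligand, bound counts read by scintillation, nonspecific binding defined with 100 nM C5a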

SMILES	inhibition at 1 µM [%]
CCc1cccc(CC)c1-c1cc(OC)c2c(n1)CCCC2N(CC)c1cccc2c1CCCC2 (stereo not drawn) [Compound 24]	88
CCc1cccc(CC)c1-c1cc(OCc2ccccc2)c2c(n1)CCCC2N(CC)c1cccc2ccccc12 (stereo not drawn) [Compound 27]	90
CCc1cccc(CC)c1-c1cc(OC)c2c(n1)CCCC2Nc1cc(C(F)(F)F)ccc1C (stereo not drawn) [Compound 28]	88
CCc1cccc(CC)c1-c1cc(OC)c2c(n1)CCCC2Oc1cc(OC)ccc1C (stereo not drawn) [Compound 29]	88
CCN(c1cccc2ccccc12)C1CCCc2nc(-c3ccccc3C)cc(OC)c21 (stereo not drawn) [Compound 30]	68
CCc1cccc(CC)c1-c1cc(OC)c2c(n1)CCCC2Nc1cc(OC)ccc1Cl (stereo not drawn) [Compound 32]	88
CCc1cccc(CC)c1-c1cc(OC)c2c(n1)CCCC2Nc1cc(OC)ccc1OC (stereo not drawn) [Compound 34]	83
CCc1cccc(CC)c1-c1cc(OC)c2c(n1)CCCC2N(C)c1ccc(OC)c2ccccc12 (stereo not drawn) [Compound 36]	86
COc1ccc(C)c(NC2CCCc3nc(-c4c(C)cccc4C)cc(OC)c32)c1 (stereo not drawn) [Compound 37]	74
CCc1cccc(CC)c1-c1cc(OC)c2c(n1)CCCC2N(C)c1cc(OC)ccc1C (stereo not drawn) [Compound 38]	84
CCc1cccc(CC)c1-c1cc(OC)c2c(n1)CCCC2N(C)c1cc(C)ccc1C (stereo not drawn) [Compound 40]	88
CCc1ccccc1NC1CCCc2nc(-c3c(CC)cccc3CC)cc(OC)c21 (stereo not drawn) [Compound 41]	85
CCc1cccc(CC)c1-c1cc(OC)c2c(n1)CCCC2N(C)c1ccccc1C (stereo not drawn) [Compound 42]	83
CCc1cccc(CC)c1-c1cc(OC)c2c(n1)CCC[C@H]2N(C)[C@H]1CCCc2ccccc21 [Compound 43]	80
CCc1cccc(CC)c1-c1cc(OC)c2c(n1)CCCC2N1CCc2cccc(C(=O)OC)c2C1 (stereo not drawn) [Compound 44]	77
CCc1cccc(CC)c1-c1cc(OC)c2c(n1)CCCC2N1CCc2ccc(F)cc2C1 (stereo not drawn) [Compound 45]	74
CCc1cccc(CC)c1-c1cc(OC)c2c(n1)CCCC2N(C)c1cc(OC)ccc1Cl (stereo not drawn) [Compound 47]	83
COc1cc(-c2c(C)cccc2C)nc2c1C(N(C)c1ccc(Cl)c3ccccc13)CCC2 (stereo not drawn) [Compound 48]	85
COc1cc(-c2c(C)cccc2C)nc2c1C(N(CC#N)c1cccc3ccccc13)CCC2 (stereo not drawn) [Compound 49]	59
CCc1cccc(CC)c1-c1cc(OC)c2c(n1)CCCC2Nc1cc(F)ccc1C (stereo not drawn) [Compound 50]	83

same assay, conditions: read-out: [125I]-C5a Binding % Inhibition 10 μM, test compound 10 μM; [125I]-C5a 0.05 nM; U937 cells; multiple values = duplicate experiments

SMILES	inhibition at 10 µM [%]
CCc1cccc(CC)c1-c1cc(OC)c2c(n1)CCCC2N(CC)c1cccc2c1CCCC2 (stereo not drawn) [Compound 24]	91
CCc1cccc(CC)c1-c1cc(OCc2ccccc2)c2c(n1)CCCC2N(CC)c1cccc2ccccc12 (stereo not drawn) [Compound 27]	94
CCc1cccc(CC)c1-c1cc(OC)c2c(n1)CCCC2Nc1cc(C(F)(F)F)ccc1C (stereo not drawn) [Compound 28]	92
CCc1cccc(CC)c1-c1cc(OC)c2c(n1)CCCC2Oc1cc(OC)ccc1C (stereo not drawn) [Compound 29]	89
CCN(c1cccc2ccccc12)C1CCCc2nc(-c3ccccc3C)cc(OC)c21 (stereo not drawn) [Compound 30]	82
CCc1cccc(CC)c1-c1cc(OC)c2c(n1)CCCC2Nc1cc(OC)ccc1Cl (stereo not drawn) [Compound 32]	91
CCc1cccc(CC)c1-c1cc(OC)c2c(n1)CCCC2Nc1cc(OC)ccc1OC (stereo not drawn) [Compound 34]	89
CCc1cccc(CC)c1-c1cc(OC)c2c(n1)CCCC2N(C)c1ccc(OC)c2ccccc12 (stereo not drawn) [Compound 36]	87
COc1ccc(C)c(NC2CCCc3nc(-c4c(C)cccc4C)cc(OC)c32)c1 (stereo not drawn) [Compound 37]	86
CCc1cccc(CC)c1-c1cc(OC)c2c(n1)CCCC2N(C)c1cc(OC)ccc1C (stereo not drawn) [Compound 38]	87
CCc1cccc(CC)c1-c1cc(OC)c2c(n1)CCCC2N(C)c1cc(C)ccc1C (stereo not drawn) [Compound 40]	88
CCc1ccccc1NC1CCCc2nc(-c3c(CC)cccc3CC)cc(OC)c21 (stereo not drawn) [Compound 41]	86
CCc1cccc(CC)c1-c1cc(OC)c2c(n1)CCCC2N(C)c1ccccc1C (stereo not drawn) [Compound 42]	86
CCc1cccc(CC)c1-c1cc(OC)c2c(n1)CCC[C@H]2N(C)[C@H]1CCCc2ccccc21 [Compound 43]	83
CCc1cccc(CC)c1-c1cc(OC)c2c(n1)CCCC2N1CCc2cccc(C(=O)OC)c2C1 (stereo not drawn) [Compound 44]	87
CCc1cccc(CC)c1-c1cc(OC)c2c(n1)CCCC2N1CCc2ccc(F)cc2C1 (stereo not drawn) [Compound 45]	87
CCc1cccc(CC)c1-c1cc(OC)c2c(n1)CCCC2N(C)c1cc(OC)ccc1Cl (stereo not drawn) [Compound 47]	89
COc1cc(-c2c(C)cccc2C)nc2c1C(N(C)c1ccc(Cl)c3ccccc13)CCC2 (stereo not drawn) [Compound 48]	91
COc1cc(-c2c(C)cccc2C)nc2c1C(N(CC#N)c1cccc3ccccc13)CCC2 (stereo not drawn) [Compound 49]	80
CCc1cccc(CC)c1-c1cc(OC)c2c(n1)CCCC2Nc1cc(F)ccc1C (stereo not drawn) [Compound 50]	85

same assay, conditions: test compound 1 μM; [125I]-C5a 0.05 nM; U937 cells; multiple values = duplicate experiments

SMILES	[125I]-C5a Binding % Inhibition 1 μM [%]
CCc1cccc(CC)c1-c1cc(OC)c2c(n1)CCCC2N(C)c1cccc2cc(OC)ccc12 (stereo not drawn) [Compound 22]	87

same assay, conditions: test compound 10 μM; [125I]-C5a 0.05 nM; U937 cells; multiple values = duplicate experiments

SMILES	[125I]-C5a Binding % Inhibition 10 μM [%]
CCc1cccc(CC)c1-c1cc(OC)c2c(n1)CCCC2N(C)c1cccc2cc(OC)ccc12 (stereo not drawn) [Compound 22]	86

Reference: patent US20090048295A1, “SUBSTITUTED 5,6,7,8-TETRAHYDROQUINOLINE DERIVATIVES, COMPOSITIONS, AND METHODS OF USE THEREOF” (priority 2007, published 2009)
